Experiments:
Assay type in all cases: in vivo
[1] = system: redroot pigweed (Amaranthus retroflexus); test: Test G Pre-Emergence Protocol; settings: Amaranthus retroflexus, pre-emergence, 312 h, evaluated after 13 days; for pest or weed control at 15.625 g/ha: 15.625 g ai/ha; for pest or weed control at 15.625 g/ha / pest or weed control at 250 g/ha: read-out: Pigweed, Redroot damage rating (100=total damage to plant; 0=no damage to plant); for pest or weed control at 62.5 g/ha: 62.5 g ai/ha, 100=total damage to plant, 0=no damage to plant, read-out: Pigweed, Redroot damage rating; for pest or weed control at 250 g/ha: 250 g ai/ha
Method in brief: (§1)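 Pots of seeds in standard soil were grown for one day in a glasshouse (24/16 °C day/night, 14 h light, 65% humidity), then sprayed with compound in acetone/water 50:50 with 0.5% Tween 20 at 15.625, 62.5 or 250 g/ha. Damage was scored after 13 days on a 0 (none) to 100 (total) scale.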

[2] = system: corn (Zea mays); test: Test G Pre-Emergence Protocol; settings: Zea mays, pre-emergence, 312 h, evaluated after 13 days; for plant injury at 15.625 g/ha: 15.625 g ai/ha; for plant injury at 15.625 g/ha / plant injury at 250 g/ha: read-out: Corn damage rating (100=total damage to plant; 0=no damage to plant); for plant injury at 62.5 g/ha: 62.5 g ai/ha, 100=total damage to plant, 0=no damage to plant, read-out: Corn damage rating; for plant injury at 250 g/ha: 250 g ai/ha
Method in brief: as §1

[3] = system: velvetleaf (Abutilon theophrasti); test: Test G Pre-Emergence Protocol; settings: Abutilon theophrasti, pre-emergence, 312 h, evaluated after 13 days; for pest or weed control at 15.625 g/ha: 15.625 g ai/ha; for pest or weed control at 15.625 g/ha / pest or weed control at 250 g/ha: read-out: Velvetleaf damage rating (100=total damage to plant; 0=no damage to plant); for pest or weed control at 62.5 g/ha: 62.5 g ai/ha, 100=total damage to plant, 0=no damage to plant, read-out: Velvetleaf damage rating; for pest or weed control at 250 g/ha: 250 g ai/ha
Method in brief: as §1

[4] = system: barnyardgrass (Echinochloa crus-galli); test: Test G Pre-Emergence Protocol; settings: Echinochloa crus-galli, pre-emergence, 312 h, evaluated after 13 days; for pest or weed control at 15.625 g/ha: 15.625 g ai/ha; for pest or weed control at 15.625 g/ha / pest or weed control at 250 g/ha: read-out: Barnyardgrass damage rating (100=total damage to plant; 0=no damage to plant); for pest or weed control at 62.5 g/ha: 62.5 g ai/ha, 100=total damage to plant, 0=no damage to plant, read-out: Barnyardgrass damage rating; for pest or weed control at 250 g/ha: 250 g ai/ha
Method in brief: as §1

[5] = system: giant foxtail (Setaria faberi); test: Test G Pre-Emergence Protocol; settings: Setaria faberi, pre-emergence, 312 h, evaluated after 13 days; for pest or weed control at 15.625 g/ha: 15.625 g ai/ha; for pest or weed control at 15.625 g/ha / pest or weed control at 250 g/ha: read-out: Foxtail, Giant damage rating (100=total damage to plant; 0=no damage to plant); for pest or weed control at 62.5 g/ha: 62.5 g ai/ha, 100=total damage to plant, 0=no damage to plant, read-out: Foxtail, Giant damage rating; for pest or weed control at 250 g/ha: 250 g ai/ha
Method in brief: as §1

[6] = system: ivy-leaved morning glory (Ipomoea hederacea); test: Test G Pre-Emergence Protocol; settings: Ipomoea, pre-emergence, 312 h, evaluated after 13 days; for pest or weed control at 15.625 g/ha: 15.625 g ai/ha; for pest or weed control at 15.625 g/ha / pest or weed control at 250 g/ha: read-out: Morningglory, Ivy-leaved damage rating (100=total damage to plant; 0=no damage to plant); for pest or weed control at 62.5 g/ha: 62.5 g ai/ha, 100=total damage to plant, 0=no damage to plant, read-out: Morningglory, Ivy-leaved damage rating; for pest or weed control at 250 g/ha: 250 g ai/ha
Method in brief: as §1

[7] = system: redroot pigweed (Amaranthus retroflexus); test: Test G Post-Emergence Protocol; settings: Amaranthus retroflexus, post-emergence, 312 h, read-out: Pigweed, Redroot damage rating; for pest or weed control at 15.625 g/ha: 15.625 g ai/ha, evaluated after 13 days (100=total damage to plant; 0=no damage to plant); for pest or weed control at 62.5 g/ha: 62.5 g ai/ha; for pest or weed control at 62.5 g/ha / pest or weed control at 250 g/ha: evaluated after 13 days, 100=total damage to plant, 0=no damage to plant; for pest or weed control at 250 g/ha: 250 g ai/ha
Method in brief: (§2)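 Values are percent visual injury at 13 days after treatment (0 none, 100 total). Treatment was a post-emergence spray at 15.625, 62.5 or 250 g/ha on 8-day-old pot plants kept at 24/16 °C.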

[8] = system: corn (Zea mays); test: Test G Post-Emergence Protocol; settings: Zea mays, post-emergence, 312 h, read-out: Corn damage rating; for plant injury at 15.625 g/ha: 15.625 g ai/ha, evaluated after 13 days (100=total damage to plant; 0=no damage to plant); for plant injury at 62.5 g/ha: 62.5 g ai/ha; for plant injury at 62.5 g/ha / plant injury at 250 g/ha: evaluated after 13 days, 100=total damage to plant, 0=no damage to plant; for plant injury at 250 g/ha: 250 g ai/ha
Method in brief: as §2

[9] = system: velvetleaf (Abutilon theophrasti); test: Test G Post-Emergence Protocol; settings: Abutilon theophrasti, post-emergence, 312 h, read-out: Velvetleaf damage rating; for pest or weed control at 15.625 g/ha: 15.625 g ai/ha, evaluated after 13 days (100=total damage to plant; 0=no damage to plant); for pest or weed control at 62.5 g/ha: 62.5 g ai/ha; for pest or weed control at 62.5 g/ha / pest or weed control at 250 g/ha: evaluated after 13 days, 100=total damage to plant, 0=no damage to plant; for pest or weed control at 250 g/ha: 250 g ai/ha
Method in brief: as §2

[10] = system: barnyardgrass (Echinochloa crus-galli); test: Test G Post-Emergence Protocol; settings: Echinochloa crus-galli, post-emergence, 312 h, read-out: Barnyardgrass damage rating; for pest or weed control at 15.625 g/ha: 15.625 g ai/ha, evaluated after 13 days (100=total damage to plant; 0=no damage to plant); for pest or weed control at 62.5 g/ha: 62.5 g ai/ha; for pest or weed control at 62.5 g/ha / pest or weed control at 250 g/ha: evaluated after 13 days, 100=total damage to plant, 0=no damage to plant; for pest or weed control at 250 g/ha: 250 g ai/ha
Method in brief: as §2

[11] = system: giant foxtail (Setaria faberi); test: Test G Post-Emergence Protocol; settings: Setaria faberi, post-emergence, 312 h, read-out: Foxtail, Giant damage rating; for pest or weed control at 15.625 g/ha: 15.625 g ai/ha, evaluated after 13 days (100=total damage to plant; 0=no damage to plant); for pest or weed control at 62.5 g/ha: 62.5 g ai/ha; for pest or weed control at 62.5 g/ha / pest or weed control at 250 g/ha: evaluated after 13 days, 100=total damage to plant, 0=no damage to plant; for pest or weed control at 250 g/ha: 250 g ai/ha
Method in brief: as §2

[12] = system: ivy-leaved morning glory (Ipomoea hederacea); test: Test G Post-Emergence Protocol; settings: Ipomoea, post-emergence, 312 h, read-out: Morningglory, Ivy-leaved damage rating; for pest or weed control at 15.625 g/ha: 15.625 g ai/ha, evaluated after 13 days (100=total damage to plant; 0=no damage to plant); for pest or weed control at 62.5 g/ha: 62.5 g ai/ha; for pest or weed control at 62.5 g/ha / pest or weed control at 250 g/ha: evaluated after 13 days, 100=total damage to plant, 0=no damage to plant; for pest or weed control at 250 g/ha: 250 g ai/ha
Method in brief: as §2

Compound	pest or weed control at 15.625 g/ha [1]	pest or weed control at 62.5 g/ha [1]	pest or weed control at 250 g/ha [1]	plant injury at 15.625 g/ha [2]	plant injury at 62.5 g/ha [2]	plant injury at 250 g/ha [2]	pest or weed control at 15.625 g/ha [3]	pest or weed control at 62.5 g/ha [3]	pest or weed control at 250 g/ha [3]	pest or weed control at 15.625 g/ha [4]	pest or weed control at 62.5 g/ha [4]	pest or weed control at 250 g/ha [4]	pest or weed control at 15.625 g/ha [5]	pest or weed control at 62.5 g/ha [5]	pest or weed control at 250 g/ha [5]	pest or weed control at 15.625 g/ha [6]	pest or weed control at 250 g/ha [6]	pest or weed control at 15.625 g/ha [7]	pest or weed control at 62.5 g/ha [7]	pest or weed control at 250 g/ha [7]	further results
CN1C[C@@H](c2ccc(C(F)(F)F)cc2)[C@H](C(=O)Nc2ccc(F)nn2)C1=O (racemic) [Compound 1655]	0%	0%	0%	0%	0%	0%	0%	0%	0%	0%	0%	0%	0%	0%	30%	0%	0%	0%	0%	40%	pest or weed control at 62.5 g/ha [6]: 0%; plant injury at 15.625 g/ha [8]: 0%; plant injury at 62.5 g/ha [8]: 0%; plant injury at 250 g/ha [8]: 0%; pest or weed control at 15.625 g/ha [9]: 0%; pest or weed control at 62.5 g/ha [9]: 0%; pest or weed control at 250 g/ha [9]: 0%; pest or weed control at 15.625 g/ha [10]: 0%; pest or weed control at 62.5 g/ha [10]: 20%; pest or weed control at 250 g/ha [10]: 20%; pest or weed control at 15.625 g/ha [11]: 0%; pest or weed control at 62.5 g/ha [11]: 30%; pest or weed control at 250 g/ha [11]: 30%; pest or weed control at 15.625 g/ha [12]: 0%; pest or weed control at 62.5 g/ha [12]: 0%; pest or weed control at 250 g/ha [12]: 0%
CON1C[C@H](c2ccc(F)c(F)c2)[C@@H](C(=O)Nc2ccc(F)c(F)c2F)C1=O [Compound 1679]	10%	10%	30%	0%	0%	60%	10%	10%	60%	50%	80%	90%	90%	90%	90%	0%	10%	0%	30%	50%	plant injury at 15.625 g/ha [8]: 0%; plant injury at 62.5 g/ha [8]: 0%; plant injury at 250 g/ha [8]: 60%; pest or weed control at 15.625 g/ha [9]: 0%; pest or weed control at 62.5 g/ha [9]: 20%; pest or weed control at 250 g/ha [9]: 40%; pest or weed control at 15.625 g/ha [10]: 40%; pest or weed control at 62.5 g/ha [10]: 80%; pest or weed control at 250 g/ha [10]: 90%; pest or weed control at 15.625 g/ha [11]: 80%; pest or weed control at 62.5 g/ha [11]: 80%; pest or weed control at 250 g/ha [11]: 80%; pest or weed control at 15.625 g/ha [12]: 0%; pest or weed control at 62.5 g/ha [12]: 50%; pest or weed control at 250 g/ha [12]: 40%
CCCOc1cc(OC(F)(F)F)cc(C2CN(C)C(=O)C2C(=O)Nc2cccc(F)c2F)c1 (centres unmarked) [Compound 1693]	0%	0%	10%	0%	30%	40%	0%	0%	10%	0%	70%	70%	0%	50%	70%	0%	20%	20%	50%	60%	pest or weed control at 62.5 g/ha [6]: 20%; plant injury at 15.625 g/ha [8]: 0%; plant injury at 62.5 g/ha [8]: 10%; plant injury at 250 g/ha [8]: 70%; pest or weed control at 15.625 g/ha [9]: 0%; pest or weed control at 62.5 g/ha [9]: 30%; pest or weed control at 250 g/ha [9]: 20%; pest or weed control at 15.625 g/ha [10]: 0%; pest or weed control at 62.5 g/ha [10]: 30%; pest or weed control at 250 g/ha [10]: 80%; pest or weed control at 15.625 g/ha [11]: 0%; pest or weed control at 62.5 g/ha [11]: 60%; pest or weed control at 250 g/ha [11]: 80%; pest or weed control at 15.625 g/ha [12]: 0%; pest or weed control at 62.5 g/ha [12]: 50%; pest or weed control at 250 g/ha [12]: 60%

Reference: US12077503B2, “Substituted cyclic amides and their use as herbicides” (FMC CORPORATION, priority 2015, dated 2024)
